The subject of test [1] is C. auris strain AR Bank #390 (L). The test is described as follows: MIC determination by in vitro antifungal assay. In kind it is cell-based, Candida auris. The method, then: (§1) The antifungal agent amphotericin B (AmB) was purchased from VWR (Radnor PA, USA). AmB was dissolved in DMSO at a final concentration of 5 mg/mL and was stored at −20° C., protected from light. Candida albicans American Type Culture Collection (ATCC) 10231 (strain A), C. albicans ATCC 64124 (B), and C. albicans ATCC MYA-2876 (C) were obtained from Utah State University. C. albicans ATCC 90819 (D), C. albicans ATCC MYA-2310 (E), C. albicans ATCC MYA-1237 (F), C. albicans ATCC MYA-1003 (G), Candida glabrata ATCC 2001 (H), Candida krusei ATCC 6258 (I), Candida parapsilosis ATCC 22019 (J), Cryptococcus neoformans ATCC MYA-895 (M), Aspergillus terreus ATCC MYA-3633 (N), and Aspergillus flavus ATCC MYA-3631 (0) were obtained from the American Type Culture Collection (ATCC; Manassas, VA, USA). Aspergillus nidulans ATCC 38163 (P) was obtained from University of Kentucky. Clinically derived Aspergillus fumigatus NRRL 163 (Q), A. fumigatus NRRL 5109 (R), and A. fumigatus NRRL 6113 (S) were obtained from Northern Regional Research Laboratory (NRRL). Candida auris 384 (K), C. auris 390 (L), and fungal strains 381-400 (including 10 C. auris (AR Bank #381-390), 3 Candida duobushaemulonii (AR Bank #391, AR Bank #392, and AR Bank #394), 2 Candida haemulonii (AR Bank #393 and AR Bank #395), 1 Kodameae ohmeri (AR Bank #396), 1 C. krusei (AR Bank #397), 1 Candida lusitaniae (AR Bank #398), and 2 Saccharomyces cerevisiae strains (AR Bank #399 and AR Bank #400)) were part of a larger fungal library from the AR Bank maintained by the Centers for Disease Control and Prevention (CDC; Atlanta, GA, USA). Filamentous fungi and yeasts were cultivated at 35° C. in RPMI 1640 medium (with L-glutamine, without sodium bicarbonate, Sigma-Aldrich, St. Louis, MO) buffered to a pH of 7.0 with 0.165 M morpholinepropanesulfonic acid (MOPS) buffer (Sigma-Aldrich). For cytotoxicity assays, HepG2 and the mouse macrophage cell line J774A.1 were obtained from University of Kentucky. The human embryonic kidney cell line, HEK-293, was bought from the ATCC. Mammalian cells were grown in Dulbecco's Modified Eagle's Medium (DMEM) (from VWR) with 10% fetal bovine serum (FBS) (from VWR) and 1% Pen/Strep (from ATCC). Cell lines were cultured at 37° C. with 5% CO2 and passaged by trypsinization with 0.05% trypsin: 0.53 mM EDTA (from Sigma-Aldrich).
(§2) From the actively growing yeast culture, 100 µL were then transferred to 900 μL of RPMI 1640 medium and re-adjusted to achieve OD600 of 0.12 (˜1×10^6 CFU/mL). The cell suspension was further diluted to achieve 1:100 in RPMI 1640 medium.
(§3) Finally, the activity of these monohydrazides was explored against […] non-Candida strains: Cryptococcus neoformans ATCC MYA-895 (M), Aspergillus terreus ATCC MYA-3633 (N), Aspergillus flavus ATCC MYA-3631 (O), Aspergillus nidulans ATCC 38163 (P), Aspergillus fumigatus NRRL 163 (Q), A. fumigatus NRRL 5109 (R), and A. fumigatus NRRL 6113 (S) (Tables 1A and 1B). The double dilution method was used with concentrations ranging from 0.06 to 31.3 j·tg mL^−1 for monohydrazides 1a-9j, and the commercially available positive antifungal control amphotericin B (AmB).

The subject of test [2] is Candida auris strain AR Bank #384 (K). In words: MIC determination by in vitro antifungal assay. In kind it is cell-based. How it is done: as §1, §2, §3
The mark [3] stands for this setting: strain L = C. auris AR Bank # 0390 (Tables 1A/1B).
Where [4] appears, read: strain K = C. auris AR Bank # 0384 (Tables 1A/1B).
The mark [5] stands for this setting: Candidozyma auris, C. auris AR Bank # 390 (L) (Table 2B), read-out: MIC.
Where [6] appears, read: Candidozyma auris, strain L = C. auris AR Bank # 0390 (Tables 1A/1B), read-out: MIC.
Where [7] appears, read: Candidozyma auris, C. auris AR Bank # 384 (K) (Table 2B), read-out: MIC.
Setting [8] is: Candidozyma auris, strain K = C. auris AR Bank # 0384 (Tables 1A/1B), read-out: MIC.
The mark [9] stands for this setting: Candidozyma auris, C. auris AR Bank #390 (L), read-out: MIC.
The mark [10] stands for this setting: Candidozyma auris, C. auris AR Bank #384 (K), read-out: MIC.

Values after ≈ are worked out from the molar mass of the structure shown. Where two headings read alike, the source gives them in different places.

`C[C@@H]1[C@H](O)[C@@H](C)/C=C/C=C/C=C/C=C/C=C/C=C/C=C/[C@H](O[C@@H]2O[C@H](C)[C@@H](O)[C@H](N)[C@@H]2O)C[C@@H]2O[C@](O)(C[C@@H](O)C[C@@H](O)[C@H](O)CC[C@@H](O)C[C@@H](O)CC(=O)O[C@H]1C)C[C@H](O)[C@H]2C(=O)O` [AmB, amphotericin B, reference compound]: the MIC in test [1] (C. auris AR Bank #390 (L)), in test [1] (C. auris AR Bank # 390 (L) (Table 2B)), in test [1] (setting [3]), in test [2] (C. auris AR Bank #384 (K)), in test [2] (C. auris AR Bank # 384 (K) (Table 2B)) and in test [2] (setting [4]) was 1.95 μg/mL^−1 throughout.

Consider `O=C(NNc1cccc(F)c1)c1ccc(F)cc1F` [Compound 1a], for which the MIC in test [1] (setting [3]) is recorded as 0.24 μg/mL^−1; in test [2] (setting [4]), 1.95 μg/mL^−1.

On to `O=C(NNc1cccc(Cl)c1)c1ccc(F)cc1F` [Compound 1b], for which the MIC in test [1] (setting [5]) is 7.8 µg/mL (≈ 27.6 µM); in test [1] (setting [6]), 7.8 µg/mL (≈ 27.6 µM); in test [2] (setting [7]), 7.8 µg/mL (≈ 27.6 µM); in test [2] (setting [8]), 13.6 µg/mL (≈ 48.1 µM).

In the case of `COc1cccc(NNC(=O)c2ccc(F)cc2F)c1` [Compound 1c], the MIC in test [1] (setting [6]) and in test [2] (setting [8]) was 1.95 µg/mL (≈ 7.01 µM) throughout.

In the case of `O=C(NNc1ccc(F)cc1)c1ccc(F)cc1F` [Compound 1d], the MIC in test [1] (setting [6]) and in test [2] (setting [8]) was 1.95 µg/mL (≈ 7.32 µM) in each case.

`O=C(NNc1ccc(Cl)cc1)c1ccc(F)cc1F` [Compound 1e]: the values for the MIC in test [1] (setting [3]) and in test [2] (setting [4]) were >31.3 μg/mL^−1 and 7.8 μg/mL^−1, respectively.

For the compound `COc1ccc(NNC(=O)c2ccc(F)cc2F)cc1` [Compound 1f], the MIC in test [1] (setting [6]) and in test [2] (setting [8]) was 1.95 µg/mL (≈ 7.01 µM) throughout.

Consider `O=C(NNc1ccc(F)cc1F)c1ccc(F)cc1F` [Compound 1g], for which the values for the MIC in test [1] (setting [6]) and in test [2] (setting [8]) were 7.8 µg/mL (≈ 27.4 µM) and 15.6 µg/mL (≈ 54.9 µM), respectively.

Regarding `O=C(NNc1cc(F)ccc1F)c1ccc(F)cc1F` [Compound 1h], the MIC turned out to be 15.6 µg/mL (≈ 54.9 µM) in test [1] (setting [6]) and 31.3 µg/mL (≈ 110 µM) in test [2] (setting [8]).

For `O=C(NNc1cc(F)cc(F)c1)c1ccc(F)cc1F` [Compound 1i], the MIC in test [1] (setting [6]) and in test [2] (setting [8]) was 15.6 µg/mL (≈ 54.9 µM) in each case.

`O=C(NNc1cc(Cl)cc(Cl)c1)c1ccc(F)cc1F` [Compound 1j]: the MIC is > 31.3 µg/mL in test [1] (setting [5]), > 31.3 µg/mL in test [1] (setting [6]), 15.6 µg/mL (≈ 49.2 µM) in test [2] (setting [7]) and > 31.3 µg/mL in test [2] (setting [8]).

`O=C(NNc1cccc(F)c1)c1ccccn1` [Compound 2a]: the MIC in test [1] (C. auris AR Bank #390 (L)) is 0.24 μg/mL^−1; in test [1] (setting [3]), 0.33 μg/mL^−1; in test [2] (C. auris AR Bank #384 (K)) it was 1.95 μg/mL^−1; in test [2] (setting [4]), 1.95 μg/mL^−1.

With `O=C(NNc1cccc(Cl)c1)c1ccccn1` [Compound 2b], the MIC is 0.49 μg/mL^−1 in test [1] (C. auris AR Bank #390 (L)), 0.98 μg/mL^−1 in test [1] (setting [3]), 0.98 μg/mL^−1 in test [2] (C. auris AR Bank #384 (K)) and 0.98 μg/mL^−1 in test [2] (setting [4]).

As to `COc1cccc(NNC(=O)c2ccccn2)c1` [Compound 2c], the MIC in test [1] (C. auris AR Bank #390 (L)), in test [1] (setting [3]), in test [2] (C. auris AR Bank #384 (K)) and in test [2] (setting [4]) was 0.98 μg/mL^−1 throughout.

On to `O=C(NNc1ccc(F)cc1)c1ccccn1` [Compound 2d], for which the MIC is 0.98 µg/mL (≈ 4.24 µM) in test [1] (setting [9]), 0.98 µg/mL (≈ 4.24 µM) in test [1] (setting [6]), 3.9 µg/mL (≈ 16.9 µM) in test [2] (setting [10]) and 3.9 µg/mL (≈ 16.9 µM) in test [2] (setting [8]).

In the case of `O=C(NNc1ccc(Cl)cc1)c1ccccn1` [Compound 2e], the MIC in test [1] (C. auris AR Bank #390 (L)), in test [1] (setting [3]), in test [2] (C. auris AR Bank #384 (K)) and in test [2] (setting [4]) was 1.95 μg/mL^−1 throughout.

With `COc1ccc(NNC(=O)c2ccccn2)cc1` [Compound 2f], the MIC in test [1] (setting [9]) was 0.12 µg/mL (≈ 0.493 µM); in test [1] (setting [6]) it was 0.12 µg/mL (≈ 0.493 µM); in test [2] (setting [10]), 3.9 µg/mL (≈ 16 µM); in test [2] (setting [8]), 3.9 µg/mL (≈ 16 µM).

For the origin of these results see patent publication US20240425464A1, “Substituted Monohydrazides as Potent Antifungal Agents” (University of Kentucky Research Foundation, priority 2023, published 2024).
